Five compounds from ChEMBL document CHEMBL5724914, “Linking interpersonal differences in gut microbiota composition and drug biotransformation activity” (2024) can be followed below.

The nature of data set [1]: The drug is tested on Z-011 corresponding to mouse gut metagenome with ENA study accession number: PRJEB37062 and ENA sample accession number: ERS12561811 for biotransformation under anaerobic condition. The drug concentrations were measured over 9 timepoints collected between 0 and 24 hours of incubation by liquid-chromatography-coupled mass spectrometry (LC–MS). The settings on record: 2 µM.

Data set [2] can be described thus: The drug is tested on WLS-220 corresponding to human gut metagenome with ENA study accession number: PRJEB37062 and ENA sample accession number: ERS12561769 for biotransformation under anaerobic condition. The drug concentrations were measured over 9 timepoints collected between 0 and 24 hours of incubation by liquid-chromatography-coupled mass spectrometry (LC–MS). As to conditions: 2 µM.

Data set [3] is described as follows: The drug is tested on Z-010 corresponding to metagenome with ENA study accession number: PRJEB37062 and ENA sample accession number: ERS12561810 for biotransformation under anaerobic condition. The drug concentrations were measured over 9 timepoints collected between 0 and 24 hours of incubation by liquid-chromatography-coupled mass spectrometry (LC–MS). As to conditions: 2 µM.

The conditions of data set [4]: human gut metagenome, 24 h, 2 µM.
Data set [5] can be described thus: The drug is tested on Z-025 corresponding to rabbit gut metagenome with ENA study accession number: PRJEB37062 and ENA sample accession number: ERS12561824 for biotransformation under anaerobic condition. The drug concentrations were measured over 9 timepoints collected between 0 and 24 hours of incubation by liquid-chromatography-coupled mass spectrometry (LC–MS). The settings on record: 2 µM.

A short description of data set [6]: The drug is tested on Z-017 corresponding to mouse gut metagenome with ENA study accession number: PRJEB37062 and ENA sample accession number: ERS12561816 for biotransformation under anaerobic condition. The drug concentrations were measured over 9 timepoints collected between 0 and 24 hours of incubation by liquid-chromatography-coupled mass spectrometry (LC–MS). As to conditions: 2 µM.

The conditions of data set [7]: human gut metagenome, 24 h, 2 µM. The source holds these as a separate data set.
Data set [8] can be described thus: The drug is tested on Z-003 corresponding to pig gut metagenome with ENA study accession number: PRJEB37062 and ENA sample accession number: ERS12561803 for biotransformation under anaerobic condition. The drug concentrations were measured over 9 timepoints collected between 0 and 24 hours of incubation by liquid-chromatography-coupled mass spectrometry (LC–MS). As to conditions: 2 µM.

Data set [9] in a line: The drug is tested on WLS-090 corresponding to human gut metagenome with ENA study accession number: PRJEB37062 and ENA sample accession number: ERS12561753 for biotransformation under anaerobic condition. The drug concentrations were measured over 9 timepoints collected between 0 and 24 hours of incubation by liquid-chromatography-coupled mass spectrometry (LC–MS). As to conditions: 2 µM.

For data set [10] the following is noted: human gut metagenome, 24 h, 2 µM. The source holds these as a separate data set.
Data set [11] can be described thus: The drug is tested on Z-013 corresponding to rabbit gut metagenome with ENA study accession number: PRJEB37062 and ENA sample accession number: ERS12561813 for biotransformation under anaerobic condition. The drug concentrations were measured over 9 timepoints collected between 0 and 24 hours of incubation by liquid-chromatography-coupled mass spectrometry (LC–MS). As to conditions: 2 µM.

For data set [12] the following is noted: human gut metagenome, 24 h, 2 µM. This is another data set of the same source.
The conditions of data set [13]: human gut metagenome, 24 h, 2 µM. The source holds these as a separate data set.
The conditions of data set [14]: human gut metagenome, 24 h, 2 µM. The source holds these as a separate data set.
Data set [15] in a line: The drug is tested on Z-023 corresponding to metagenome with ENA study accession number: PRJEB37062 and ENA sample accession number: ERS12561822 for biotransformation under anaerobic condition. The drug concentrations were measured over 9 timepoints collected between 0 and 24 hours of incubation by liquid-chromatography-coupled mass spectrometry (LC–MS). As to conditions: 2 µM.

The nature of data set [16]: The drug is tested on WLS-240 corresponding to human gut metagenome with ENA study accession number: PRJEB37062 and ENA sample accession number: ERS12561773 for biotransformation under anaerobic condition. The drug concentrations were measured over 9 timepoints collected between 0 and 24 hours of incubation by liquid-chromatography-coupled mass spectrometry (LC–MS). As to conditions: 2 µM.

Data set [17] can be described thus: The drug is tested on Z-030 corresponding to mouse gut metagenome with ENA study accession number: PRJEB37062 and ENA sample accession number: ERS12561829 for biotransformation under anaerobic condition. The drug concentrations were measured over 9 timepoints collected between 0 and 24 hours of incubation by liquid-chromatography-coupled mass spectrometry (LC–MS). As to conditions: 2 µM.

For data set [18] the following is noted: human gut metagenome, 24 h, 2 µM. The source holds these as a separate data set.
The conditions of data set [19]: human gut metagenome, 24 h, 2 µM. This is another data set of the same source.
Data set [20] in a line: The drug is tested on Z-009 corresponding to pig gut metagenome with ENA study accession number: PRJEB37062 and ENA sample accession number: ERS12561809 for biotransformation under anaerobic condition. The drug concentrations were measured over 9 timepoints collected between 0 and 24 hours of incubation by liquid-chromatography-coupled mass spectrometry (LC–MS). The settings on record: 2 µM.
Note: call rule not given here.

In the case of `CC1Cc2ccccc2N1NC(=O)c1ccc(Cl)c(S(N)(=O)=O)c1` (stereo not given) [INDAPAMIDE], the “Bacterial Biotransformation” value in [1], in [2], in data set [3], in [4], in data set [5] and in [6] was “Compound NOT metabolized” each time. The “Bacterial Biotransformation” value in data set [7], in [8], in [9], in data set [10], in [11] and in data set [12] was “Compound NOT metabolized” in each case. The “Bacterial Biotransformation” value in data set [13], in [14], in [15], in data set [16], in [17] and in data set [18] was “Compound NOT metabolized” each time. The “Bacterial Biotransformation” value in [19] and in data set [20] was “Compound NOT metabolized” in each case.
As to `COc1ccc2c(c1)c(CC(=O)O)c(C)n2C(=O)c1ccc(Cl)cc1` [INDOMETHACIN], the “Bacterial Biotransformation” value was “Compound NOT metabolized” in data set [1]; “Compound metabolized” in data set [2]; “Compound NOT metabolized” in [3]; “Compound NOT metabolized” in data set [4]; “Compound NOT metabolized” in [5]; “Compound NOT metabolized” in data set [6]. The “Bacterial Biotransformation” value is “Compound metabolized” in data set [7]; “Compound NOT metabolized” in [8]; “Compound metabolized” in data set [9]; “Compound metabolized” in data set [10]; “Compound NOT metabolized” in data set [11]; “Compound metabolized” in [12]. The “Bacterial Biotransformation” value was “Compound NOT metabolized” in data set [13]; “Compound metabolized” in data set [14]; “Compound NOT metabolized” in data set [15]; “Compound metabolized” in data set [16]; “Compound NOT metabolized” in [17]; “Compound metabolized” in [18]. The “Bacterial Biotransformation” value is recorded as “Compound metabolized” in [19] and “Compound NOT metabolized” in [20].
With `CC(CCc1ccccc1)NCC(O)c1ccc(O)c(C(N)=O)c1` (stereo not given) [LABETALOL], the “Bacterial Biotransformation” value in data set [1] was “Compound NOT metabolized”; in [2] it was “Compound NOT metabolized”; in data set [3], “Compound NOT metabolized”; in [4] it was “Compound NOT metabolized”; in [5], “Compound metabolized”; in data set [6], “Compound NOT metabolized”. Further, the “Bacterial Biotransformation” value in [7] is “Compound NOT metabolized”; in [8], “Compound NOT metabolized”; in [9] it was “Compound metabolized”; in data set [10], “Compound NOT metabolized”; in data set [11] it was “Compound NOT metabolized”; in data set [12] it was “Compound NOT metabolized”. In addition, the “Bacterial Biotransformation” value in data set [13] is “Compound NOT metabolized”; in data set [14], “Compound NOT metabolized”; in data set [15], “Compound metabolized”; in [16] it was “Compound metabolized”; in [17], “Compound NOT metabolized”; in data set [18], “Compound NOT metabolized”. The “Bacterial Biotransformation” value in data set [19] and in data set [20] was “Compound NOT metabolized” in each case.
As for `Nc1nnc(-c2cccc(Cl)c2Cl)c(N)n1` [LAMOTRIGINE], the “Bacterial Biotransformation” value in [1] is “Compound NOT metabolized”; in [2] it was “Compound NOT metabolized”; in [3] it was “Compound NOT metabolized”; in data set [4], “Compound metabolized”; in data set [5] it was “Compound NOT metabolized”; in data set [6], “Compound NOT metabolized”. For the same compound, the “Bacterial Biotransformation” value in data set [7] was “Compound NOT metabolized”; in data set [8] it was “Compound NOT metabolized”; in data set [9], “Compound metabolized”; in data set [10], “Compound NOT metabolized”; in [11], “Compound NOT metabolized”; in data set [12] it was “Compound NOT metabolized”. Besides, the “Bacterial Biotransformation” value in data set [13] is given as “Compound NOT metabolized”; in data set [14], “Compound NOT metabolized”; in [15] it was “Compound NOT metabolized”; in [16] it was “Compound metabolized”; in data set [17] it was “Compound NOT metabolized”; in data set [18], “Compound NOT metabolized”. The “Bacterial Biotransformation” value in [19] and in data set [20] was “Compound NOT metabolized” throughout.
As to `OC(c1cc(C(F)(F)F)nc2c(C(F)(F)F)cccc12)C1CCCCN1` (stereo not given) [MEFLOQUINE], the “Bacterial Biotransformation” value in data set [1] is recorded as “Compound metabolized”; in data set [2], “Compound metabolized”; in data set [3] it was “Compound metabolized”; in data set [4], “Compound metabolized”; in data set [5], “Compound NOT metabolized”; in [6], “Compound NOT metabolized”. For the same compound, the “Bacterial Biotransformation” value was “Compound NOT metabolized” in [7]; “Compound metabolized” in data set [8]; “Compound metabolized” in [9]; “Compound metabolized” in data set [10]; “Compound NOT metabolized” in data set [11]; “Compound metabolized” in data set [12]. Also, the “Bacterial Biotransformation” value in data set [13] is on record as “Compound metabolized”; in [14] it was “Compound metabolized”; in [15], “Compound metabolized”; in data set [16], “Compound metabolized”; in data set [17] it was “Compound NOT metabolized”; in data set [18], “Compound metabolized”. For the same compound, the “Bacterial Biotransformation” value in data set [19] and in data set [20] was “Compound metabolized” in each case.
